What all share (type): in vivo
Test [1] has as its system rice leafroller (Cnaphalocrocis medinalis). Kind of test: Insecticidal effect on rice leafroller (Test Example 3). Conditions: 500 ppm, rice lamina dip, third-instar larvae, four days after inoculation, 25° C., humidity 70%. In outline:
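Insecticidal effect is judged by a predefined criterion from dead/alive counts four days after infesting air-dried lamina with third-instar larvae, kept on moistened filter paper at 25° C, 70% humidity.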

In test [2] the test system is diamondback moth (Plutella xylostella). Put plainly: Insecticidal effect on diamondback moth (Test Example 1). Conditions: mortality judged according to the criterion shown in Test Example 1. In a few lines:
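Triplicate groups of 10 insects were scored: six days after immersion of oviposited Chinese cabbage seedlings and holding at 25 °C post air-drying, hatched larvae were counted. Mortality derived from these counts and insecticidal effect judged by a set criterion.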

Test [3] concerns common cutworm (Spodoptera Litura). Put plainly: Insecticidal effect on common cutworm (Test Example 2). Conditions: 500 ppm, cabbage leaf dip, second-instar larvae, eight days after inoculation, 25° C. In outline: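 Air-dried treated material was placed in a closed dish with second-instar larvae and held at 25° C. Dead and live insects were counted eight days after inoculation, and mortality was calculated and scored against a fixed insecticidal-effect criterion. Three replicate groups of 10 insects were used.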

Consider `Cc1cc(C(F)(F)C(F)(F)C(F)(F)F)ccc1NC(=O)c1cccc(F)c1C(=O)NC(C)C` [compound 496], for which the “Insecticidal effect on rice leafroller (Test Example 3), judged grade” value (shortened to “Insecticidal effect on rice leafroller”) in test [1] is listed as “A (100)”. The “Insecticidal effect on diamondback moth (Test Example 1), judged grade” value (from here on “Insecticidal effect on diamondback moth”) in test [2] was “A (100)”. For the same molecule, in test [3], the “Insecticidal effect on common cutworm (Test Example 2), judged grade” value (from here on “Insecticidal effect on common cutworm”) is on record as “A (100)”.
Consider `Cc1cc(C(F)(F)C(F)(F)C(F)(F)C(F)(F)F)ccc1NC(=O)c1cccc(F)c1C(=O)NC(C)C` [compound 498], for which the “Insecticidal effect on rice leafroller” value in test [1] was “A (100)”. In addition, the “Insecticidal effect on diamondback moth” value in test [2] is reported as “A (100)”. Further, in test [3], the “Insecticidal effect on common cutworm” value is recorded as “A (100)”.
Consider `Cc1c(NC(=O)c2cccc(F)c2C(=O)NC(C)C)cccc1OC(F)F` [compound 499], for which the “Insecticidal effect on rice leafroller” value in test [1] was “A (100)”. Also, the “Insecticidal effect on diamondback moth” value in test [2] is on record as “A (100)”. In test [3], the “Insecticidal effect on common cutworm” value is “A (100)”.
Consider `Cc1cc(OC(F)F)ccc1NC(=O)c1cccc(F)c1C(=O)NC(C)C` [compound 500], for which, in test [1], the “Insecticidal effect on rice leafroller” value is “A (100)”. Also, the “Insecticidal effect on diamondback moth” value in test [2] was “A (100)”. In test [3], the “Insecticidal effect on common cutworm” value is on record as “B (99-90)”.
With `Cc1cc(OC(F)(F)C(Cl)(Cl)Cl)ccc1NC(=O)c1cccc(F)c1C(=O)NC(C)C` [compound 501], in test [1], the “Insecticidal effect on rice leafroller” value was “A (100)”. Also, in test [2], the “Insecticidal effect on diamondback moth” value is recorded as “A (100)”. In addition, in test [3], the “Insecticidal effect on common cutworm” value was “A (100)”.
For `Cc1cc(OC(F)(F)C(F)(Cl)Cl)ccc1NC(=O)c1cccc(F)c1C(=O)NC(C)C` [compound 502], the “Insecticidal effect on rice leafroller” value in test [1] is “A (100)”. The “Insecticidal effect on diamondback moth” value in test [2] is given as “A (100)”. The “Insecticidal effect on common cutworm” value in test [3] is “A (100)”.
Take `Cc1cc(OC(F)(F)C(F)(F)Br)ccc1NC(=O)c1cccc(F)c1C(=O)NC(C)C` [compound 503]: the “Insecticidal effect on rice leafroller” value in test [1] is recorded as “A (100)”. The “Insecticidal effect on diamondback moth” value in test [2] is reported as “A (100)”. In addition, the “Insecticidal effect on common cutworm” value in test [3] was “B (99-90)”.
Take `CC(C)NC(=O)c1c(F)cccc1C(=O)Nc1ccc(C(F)(F)F)cc1Cl` [compound 504]: in test [1], the “Insecticidal effect on rice leafroller” value is given as “A (100)”. In addition, in test [2], the “Insecticidal effect on diamondback moth” value was “A (100)”. In test [3], the “Insecticidal effect on common cutworm” value is given as “A (100)”.
Turning to `CC(C)NC(=O)c1c(F)cccc1C(=O)Nc1ccc(C(F)(F)C(F)(F)C(F)(F)F)cc1Cl` [compound 505], in test [1], the “Insecticidal effect on rice leafroller” value is listed as “A (100)”. In test [2], the “Insecticidal effect on diamondback moth” value was “A (100)”. Further, the “Insecticidal effect on common cutworm” value in test [3] is on record as “A (100)”.
On to `CC(C)NC(=O)c1c(F)cccc1C(=O)Nc1ccc(C(F)(C(F)(F)F)C(F)(F)F)cc1Cl` [compound 507], for which, in test [1], the “Insecticidal effect on rice leafroller” value was “A (100)”. Also, the “Insecticidal effect on diamondback moth” value in test [2] is given as “A (100)”. Also, the “Insecticidal effect on common cutworm” value in test [3] is on record as “B (99-90)”.
For the molecule `CC(C)NC(=O)c1c(F)cccc1C(=O)Nc1ccc(OC(F)(F)F)cc1Cl` [compound 508], the “Insecticidal effect on rice leafroller” value in test [1] was “A (100)”. Also, the “Insecticidal effect on diamondback moth” value in test [2] is reported as “A (100)”. The “Insecticidal effect on common cutworm” value in test [3] was “B (99-90)”.
As for `CC(C)NC(=O)c1c(F)cccc1C(=O)Nc1ccc(OC(F)(F)F)cc1Br` [compound 509], the “Insecticidal effect on rice leafroller” value in test [1] was “A (100)”. In addition, in test [2], the “Insecticidal effect on diamondback moth” value is “A (100)”. Further, the “Insecticidal effect on common cutworm” value in test [3] is “A (100)”.
In the case of `Cc1cc(OC(F)(F)F)ccc1NC(=O)c1cccc(F)c1C(=O)NC(C)C` [compound 510], in test [1], the “Insecticidal effect on rice leafroller” value is listed as “A (100)”. Besides, the “Insecticidal effect on diamondback moth” value in test [2] is “A (100)”. In test [3], the “Insecticidal effect on common cutworm” value is “B (99-90)”.
Regarding `Cc1cc(OC(F)(F)Br)ccc1NC(=O)c1cccc(F)c1C(=O)NC(C)C` [compound 511], the “Insecticidal effect on rice leafroller” value in test [1] is “A (100)”. The “Insecticidal effect on diamondback moth” value in test [2] is “A (100)”. The “Insecticidal effect on common cutworm” value in test [3] is “A (100)”.
`Cc1cc(OC(F)(F)C(F)F)ccc1NC(=O)c1cccc(F)c1C(=O)NC(C)C` [compound 512]: the “Insecticidal effect on rice leafroller” value in test [1] was “A (100)”. For the same molecule, the “Insecticidal effect on diamondback moth” value in test [2] is reported as “A (100)”. For the same molecule, in test [3], the “Insecticidal effect on common cutworm” value is listed as “A (100)”.
Turning to `Cc1cc(OC(F)(F)C(F)Cl)ccc1NC(=O)c1cccc(F)c1C(=O)NC(C)C` (stereo not drawn) [compound 513], the “Insecticidal effect on rice leafroller” value in test [1] is “A (100)”. Further, in test [2], the “Insecticidal effect on diamondback moth” value is given as “A (100)”. Also, the “Insecticidal effect on common cutworm” value in test [3] was “A (100)”.
As for `Cc1cc(OC(F)(F)C(F)C(F)(F)F)ccc1NC(=O)c1cccc(F)c1C(=O)NC(C)C` (stereo not drawn) [compound 514], the “Insecticidal effect on rice leafroller” value in test [1] is given as “A (100)”. Also, the “Insecticidal effect on diamondback moth” value in test [2] is “A (100)”. The “Insecticidal effect on common cutworm” value in test [3] is “A (100)”.
`Cc1cc(OC(F)(F)C(F)(Br)C(F)(F)F)ccc1NC(=O)c1cccc(F)c1C(=O)NC(C)C` (stereo not drawn) [compound 516]: the “Insecticidal effect on rice leafroller” value in test [1] is recorded as “A (100)”. In test [2], the “Insecticidal effect on diamondback moth” value is “A (100)”. Besides, in test [3], the “Insecticidal effect on common cutworm” value is on record as “A (100)”.
Turning to `Cc1cc(OC(F)F)c(Cl)cc1NC(=O)c1cccc(F)c1C(=O)NC(C)C` [compound 517], the “Insecticidal effect on rice leafroller” value in test [1] was “A (100)”. Moreover, in test [2], the “Insecticidal effect on diamondback moth” value is listed as “A (100)”. The “Insecticidal effect on common cutworm” value in test [3] is “A (100)”.
Regarding `Cc1cc(Oc2cccc(C(F)(F)F)c2)ccc1NC(=O)c1cccc(F)c1C(=O)NC(C)C` [compound 519], the “Insecticidal effect on rice leafroller” value in test [1] was “A (100)”. Besides, the “Insecticidal effect on diamondback moth” value in test [2] is recorded as “A (100)”. Also, the “Insecticidal effect on common cutworm” value in test [3] is listed as “A (100)”.
Consider `Cc1cc(Oc2ccc(C(F)(F)F)cc2Cl)ccc1NC(=O)c1cccc(F)c1C(=O)NC(C)C` [compound 521], for which the “Insecticidal effect on rice leafroller” value in test [1] is “A (100)”. The “Insecticidal effect on diamondback moth” value in test [2] was “A (100)”. Besides, in test [3], the “Insecticidal effect on common cutworm” value is reported as “A (100)”.
Take `Cc1cc(Sc2ccc(Cl)cc2)ccc1NC(=O)c1cccc(F)c1C(=O)NC(C)C` [compound 522]: the “Insecticidal effect on rice leafroller” value in test [1] is given as “A (100)”. Further, the “Insecticidal effect on diamondback moth” value in test [2] is “A (100)”. Besides, the “Insecticidal effect on common cutworm” value in test [3] is given as “D (79-50)”.
Turning to `Cc1cc(Oc2ccc(C(F)(F)F)cn2)ccc1NC(=O)c1cccc(F)c1C(=O)NC(C)C` [compound 523], the “Insecticidal effect on rice leafroller” value in test [1] was “A (100)”. In addition, the “Insecticidal effect on diamondback moth” value in test [2] is recorded as “A (100)”. Besides, in test [3], the “Insecticidal effect on common cutworm” value is “A (100)”.
Turning to `Cc1cc(Oc2ncc(C(F)(F)F)cc2Cl)ccc1NC(=O)c1cccc(F)c1C(=O)NC(C)C` [compound 524], the “Insecticidal effect on rice leafroller” value in test [1] is “A (100)”. The “Insecticidal effect on diamondback moth” value in test [2] is on record as “A (100)”. For the same molecule, the “Insecticidal effect on common cutworm” value in test [3] is “A (100)”.
As for `CC(C)NC(=O)c1c(F)cccc1C(=O)Nc1ccc(OC(F)F)cc1C(F)(F)F` [compound 527], in test [1], the “Insecticidal effect on rice leafroller” value is reported as “A (100)”. The “Insecticidal effect on diamondback moth” value in test [2] is “A (100)”. Moreover, in test [3], the “Insecticidal effect on common cutworm” value is “A (100)”.
In the case of `Cc1cc(Cl)ccc1NC(=O)c1ccc(F)cc1C(=O)NC(C)C` [compound 529], the “Insecticidal effect on rice leafroller” value in test [1] is recorded as “A (100)”. Further, the “Insecticidal effect on diamondback moth” value in test [2] was “A (100)”. Further, the “Insecticidal effect on common cutworm” value in test [3] is on record as “D (79-50)”.
As to `Cc1cc(C(F)(F)C(F)(F)C(F)(F)F)ccc1NC(=O)c1cc(F)ccc1C(=O)NC(C)C` [compound 533], the “Insecticidal effect on rice leafroller” value in test [1] is recorded as “A (100)”. Further, in test [2], the “Insecticidal effect on diamondback moth” value was “A (100)”. Besides, in test [3], the “Insecticidal effect on common cutworm” value is reported as “A (100)”.
For the molecule `CC(C)NC(=O)c1cccc(F)c1C(=O)Nc1ccc(OC(F)(F)C(F)OC(F)(F)C(F)(F)C(F)(F)F)cc1` (stereo not drawn) [compound 538], in test [1], the “Insecticidal effect on rice leafroller” value was “A (100)”. The “Insecticidal effect on diamondback moth” value in test [2] is given as “A (100)”. Also, in test [3], the “Insecticidal effect on common cutworm” value was “A (100)”.
Regarding `Cc1cc(I)ccc1NC(=O)c1c(F)cccc1C(=O)NC(C)C` [compound 547], the “Insecticidal effect on rice leafroller” value in test [1] was “D (79-50)”. In addition, the “Insecticidal effect on diamondback moth” value in test [2] is given as “A (100)”. For the same molecule, the “Insecticidal effect on common cutworm” value in test [3] is reported as “A (100)”.
In the case of `Cc1c(F)cccc1NC(=O)c1c(F)cccc1C(=O)NC(C)C` [compound 548], in test [1], the “Insecticidal effect on rice leafroller” value is listed as “A (100)”. The “Insecticidal effect on diamondback moth” value in test [2] is on record as “A (100)”. For the same molecule, the “Insecticidal effect on common cutworm” value in test [3] is on record as “A (100)”.

The record behind these values is US6362369B1, “Phthalic acid diamide derivatives fluorine-containing aniline compounds as starting material, agricultural and horticultural insecticides, and a method for application of the insecticides” (Nihon Nohyaku Co., Ltd., priority 1997, dated 2002).
